Measured values reported in PubChem BioAssay (NCI).
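96-well plates; 48 h exposure; 5 concentrations. Endpoints by linear interpolation between flanking doses. Not reached: highest tested concentration assigned. Abbreviation: GI50, concentration required for 50% inhibition of growth. TGI denotes the concentration required for complete inhibition of growth.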

Assays:
Test in all cases: inhibition of tumour cell growth, NCI panel, 48 h
[1] = test system: SW-620 colon
[2] = test system: SF-295 CNS
[3] = test system: SK-MEL-5 melanoma
[4] = test system: SK-MEL-2 melanoma
[5] = test system: 786-0 renal
[6] = test system: HL-60(TB) leukemia
[7] = test system: UO-31 renal
[8] = test system: OVCAR-3 ovarian
[9] = test system: SK-OV-3 ovarian
[10] = test system: SN12C renal
[11] = test system: HS 578T breast
[12] = test system: DU-145 prostate
[13] = test system: SK-MEL-28 melanoma
[14] = test system: MDA-MB-435
[15] = test system: ACHN renal
[16] = test system: UACC-62 melanoma
[17] = test system: NCI-H226 lung
[18] = test system: SNB-75 CNS
[19] = test system: LOX IMVI melanoma
[20] = test system: A498 renal
[21] = test system: TK-10 renal
[22] = test system: M14 melanoma
[23] = test system: RXF 393 renal
[24] = test system: NCI-H522 lung
[25] = test system: U251 CNS
[26] = test system: HCT-15 colon
[27] = test system: HCT-116 colon
[28] = test system: PC-3 prostate
[29] = test system: CAKI-1 renal
[30] = test system: SF-539 CNS
[31] = test system: BT-549 breast
[32] = test system: MDA-MB-231 breast
[33] = test system: KM12 colon
[34] = test system: COLO 205 colon
[35] = test system: EKVX NSCLC
[36] = test system: SF-268 CNS
[37] = test system: OVCAR-4 ovarian
[38] = test system: CCRF-CEM leukemia
[39] = test system: IGROV1 ovarian
[40] = test system: MALME-3M melanoma
[41] = test system: MCF7 breast
[42] = test system: HOP-92 NSCLC
[43] = test system: UACC-257 melanoma
[44] = test system: T-47D breast
[45] = test system: HOP-62 NSCLC
[46] = test system: SNB-19 CNS
[47] = test system: HT29 colon
[48] = test system: OVCAR-8 ovarian
[49] = test system: NCI-H460 lung
[50] = test system: A549 NSCLC

With `CCN(CCO)CCCC(C)Nc1ccnc2cc(Cl)ccc12` (stereo not given) the GI50 [1] was over 100 µM, the TGI [1] was over 100 µM and the GI50 [2] was over 100 µM. The TGI [2] was over 100 µM, the GI50 [3] was over 100 µM and the TGI [3] was over 100 µM. For the same compound, the GI50 [4] was over 100 µM, the TGI [4] was over 100 µM and the GI50 [5] was over 100 µM. It also gave a TGI [5] of over 100 µM, a GI50 [6] of 13.3 µM and a TGI [6] of 47.6 µM. The GI50 [7] was over 100 µM, the TGI [7] was over 100 µM and the GI50 [8] was over 100 µM. The TGI [8] was over 100 µM, the GI50 [9] was over 100 µM and the TGI [9] was over 100 µM. It also gave a GI50 [10] of over 100 µM, a TGI [10] of over 100 µM and a GI50 [11] of over 100 µM. It also gave a TGI [11] of over 100 µM, a GI50 [12] of over 100 µM and a TGI [12] of over 100 µM. The GI50 [13] was over 100 µM, the TGI [13] was over 100 µM and the GI50 [14] was over 100 µM. For the same compound, the TGI [14] was over 100 µM, the GI50 [15] was over 100 µM and the TGI [15] was over 100 µM. For the same compound, the GI50 [16] was over 100 µM, the TGI [16] was over 100 µM and the GI50 [17] was over 100 µM. It also gave a TGI [17] of over 100 µM, a GI50 [18] of over 100 µM and a TGI [18] of over 100 µM. The GI50 [19] was over 100 µM, the TGI [19] was over 100 µM and the GI50 [20] was over 100 µM. It also gave a TGI [20] of over 100 µM, a GI50 [21] of over 100 µM and a TGI [21] of over 100 µM. For the same compound, the GI50 [22] was over 100 µM, the TGI [22] was over 100 µM and the GI50 [23] was 73.8 µM. The TGI [23] was over 100 µM, the GI50 [24] was over 100 µM and the TGI [24] was over 100 µM. It also gave a GI50 [25] of over 100 µM, a TGI [25] of over 100 µM and a GI50 [26] of over 100 µM. It also gave a TGI [26] of over 100 µM, a GI50 [27] of over 100 µM and a TGI [27] of over 100 µM. For the same compound, the GI50 [28] was over 100 µM, the TGI [28] was over 100 µM and the GI50 [29] was over 100 µM. The TGI [29] was over 100 µM, the GI50 [30] was 8.63 µM and the TGI [30] was over 100 µM. For the same compound, the GI50 [31] was over 100 µM, the TGI [31] was over 100 µM and the GI50 [32] was over 100 µM. It also gave a TGI [32] of over 100 µM, a GI50 [33] of over 100 µM and a TGI [33] of over 100 µM. It also gave a GI50 [34] of over 100 µM, a TGI [34] of over 100 µM and a GI50 [35] of over 100 µM. It also gave a TGI [35] of over 100 µM, a GI50 [36] of over 100 µM and a TGI [36] of over 100 µM. For the same compound, the GI50 [37] was over 100 µM, the TGI [37] was over 100 µM and the GI50 [38] was over 100 µM. It also gave a TGI [38] of over 100 µM, a GI50 [39] of over 100 µM and a TGI [39] of over 100 µM. For the same compound, the GI50 [40] was over 100 µM, the TGI [40] was over 100 µM and the GI50 [41] was over 100 µM. For the same compound, the TGI [41] was over 100 µM, the GI50 [42] was over 100 µM and the TGI [42] was over 100 µM. The GI50 [43] was over 100 µM, the TGI [43] was over 100 µM and the GI50 [44] was over 100 µM. For the same compound, the TGI [44] was over 100 µM, the GI50 [45] was over 100 µM and the TGI [45] was over 100 µM. For the same compound, the GI50 [46] was over 100 µM, the TGI [46] was over 100 µM and the GI50 [47] was over 100 µM. It also gave a TGI [47] of over 100 µM, a GI50 [48] of over 100 µM and a TGI [48] of over 100 µM. It also gave a GI50 [49] of over 100 µM, a TGI [49] of over 100 µM and a GI50 [50] of over 100 µM. For the same compound, the TGI [50] was over 100 µM.
